Test results as given in article PMC12888861, “Antibacterial activity of enmetazobactam against Acinetobacter spp.: a molecular dissection of mechanism of action and resistance determinants” (Antimicrobial Agents and Chemotherapy, 2025).
Where two headings read alike, the source gives them in different places.

Test system: A. non-baumannii isolates (n = 87)
Assay: MIC, broth microdilution (EUCAST), A. non-baumannii isolates
Format: cell-based, Acinetobacter spp. (non-baumannii)
Conditions: for MIC: in combinations ETZ fixed at 8 mg/L
Source text: The bacterial strains used in this study comprised 208 clinical isolates from the Spanish National Acinetobacter spp. 2020 Multicenter Collection, which was previously characterized in detail by our research group, including whole-genome sequencing, phylogenetics studies, clonal dynamics, and resistance mechanisms ([2], [29]). Additionally, a collection of A. baumannii ATCC 17978 transformants coding the blaOXA-23, blaOXA-24/40, blaOXA-51, blaOXA-58, blaOXA-143, and blaOXA-201 genes, previously constructed and described by our group ([30]), was used to determine the activity of enmetazobactam against strains carrying the main CHDLs of A. baumannii.
The antimicrobial susceptibility of the 208 Acinetobacter spp. isolates was assessed using the broth microdilution method, as described in the European Committee on Antimicrobial Susceptibility Testing (EUCAST) v.15 guidelines (http://www.eucast.org/clinical_breakpoints). […] MICs for enmetazobactam alone were assessed as well. […] Subsequently, MIC testing was also conducted with a collection of A. baumannii ATCC 17978 transformants expressing clinically relevant OXA-like carbapenemase genes.
The A. baumannii ATCC 19606 strain was used as the reference strain in all susceptibility experiments, in duplicate assays. Antibiotics were purchased from Sigma-Aldrich, except enmetazobactam and durlobactam, which were obtained from Advanz Pharma and MedChemExpress, respectively.

[1] = Acinetobacter, A. non-baumannii isolates (n=87), ETZ fixed 8 mg/L in combinations
[2] = […], ETZ fixed 8 mg/L in combinations

With CO/N=C(\C(=O)N[C@@H]1C(=O)N2C(C(=O)[O-])=C(C[N+]3(C)CCCC3)CS[C@H]12)c1csc(N)n1 [cefepime] the “MIC distribution 0.12” value was 1.1, the MIC (Acinetobacter baylyi, isolate NO-Ab27, Acinetobacter baylyi, read-out: MIC) was 0.5 µg/mL and the MIC (Acinetobacter beijerinckii, isolate NO-Ab122, Acinetobacter beijerinckii, read-out: MIC) was 2 µg/mL. The MIC (Acinetobacter bereziniae, isolate NO-Ab70, Acinetobacter bereziniae, read-out: MIC) was 1 µg/mL, the MIC (Acinetobacter bereziniae, isolate NO-Ab84, Acinetobacter bereziniae, read-out: MIC) was 1 µg/mL and the MIC (Acinetobacter bereziniae, isolate NO-Ab104, Acinetobacter bereziniae, read-out: MIC) was 0.5 µg/mL. The MIC (Acinetobacter bereziniae, isolate NO-Ab114, Acinetobacter bereziniae, read-out: MIC) was 1 µg/mL, the MIC (Acinetobacter bereziniae, isolate NO-Ab115, Acinetobacter bereziniae, read-out: MIC) was 1 µg/mL and the MIC (Acinetobacter bereziniae, isolate NO-Ab116, Acinetobacter bereziniae, read-out: MIC) was 1 µg/mL. The MIC (Acinetobacter bereziniae, isolate NO-Ab117, Acinetobacter bereziniae, read-out: MIC) was 4 µg/mL, the MIC (Acinetobacter bereziniae, isolate NO-Ab129, Acinetobacter bereziniae, read-out: MIC) was 1 µg/mL and the MIC (Acinetobacter bereziniae, isolate NO-Ab156, Acinetobacter bereziniae, read-out: MIC) was 1 µg/mL. For the same compound, the MIC (Acinetobacter calcoaceticus, isolate NO-Ab85, Acinetobacter calcoaceticus, read-out: MIC) was 4 µg/mL, the MIC (Acinetobacter calcoaceticus, isolate NO-Ab94, Acinetobacter calcoaceticus, read-out: MIC) was 2 µg/mL and the MIC (Acinetobacter calcoaceticus, isolate NO-Ab108, Acinetobacter calcoaceticus, read-out: MIC) was 4 µg/mL. The MIC (Acinetobacter calcoaceticus, isolate NO-Ab161, Acinetobacter calcoaceticus, read-out: MIC) was 4 µg/mL, the MIC (Acinetobacter calcoaceticus, isolate NO-Ab198, Acinetobacter calcoaceticus, read-out: MIC) was 4 µg/mL and the MIC (Acinetobacter calcoaceticus, isolate NO-Ab205, Acinetobacter calcoaceticus, read-out: MIC) was 4 µg/mL. The MIC (Acinetobacter calcoaceticus, isolate NO-Ab211, Acinetobacter calcoaceticus, read-out: MIC) was 2 µg/mL, the MIC (Acinetobacter courvalinii, isolate NO-Ab216, Acinetobacter courvalinii, read-out: MIC) was 1 µg/mL and the MIC (Acinetobacter dispersus, isolate NO-Ab2, Acinetobacter dispersus, read-out: MIC) was 0.5 µg/mL. The MIC (Acinetobacter guillouiae, isolate NO-Ab69, Acinetobacter guillouiae, read-out: MIC) was 2 µg/mL, the MIC (Acinetobacter guillouiae, isolate NO-Ab74, Acinetobacter guillouiae, read-out: MIC) was 2 µg/mL and the MIC (Acinetobacter haemolyticus, isolate NO-Ab92, Acinetobacter haemolyticus) was 2 µg/mL. For the same compound, the MIC (Acinetobacter haemolyticus, isolate NO-Ab177, Acinetobacter haemolyticus) was 1 µg/mL, the MIC (Acinetobacter haemolyticus, isolate NO-Ab217, Acinetobacter haemolyticus) was 2 µg/mL and the MIC (Acinetobacter johnsonii, isolate NO-Ab101, Acinetobacter johnsonii, read-out: MIC) was 4 µg/mL. For the same compound, the MIC (Acinetobacter junii, isolate NO-Ab76, Acinetobacter junii, read-out: MIC) was 0.5 µg/mL, the MIC (Acinetobacter junii, isolate NO-Ab77, Acinetobacter junii, OXA-24/40, read-out: MIC) was 1 µg/mL and the MIC (Acinetobacter lactucae, isolate NO-Ab60, Acinetobacter dijkshoorniae, read-out: MIC) was 2 µg/mL. It also gave an MIC (Acinetobacter lactucae, isolate NO-Ab63, Acinetobacter dijkshoorniae, read-out: MIC) of 2 µg/mL, an MIC (Acinetobacter lactucae, isolate NO-Ab65, Acinetobacter dijkshoorniae, read-out: MIC) of 2 µg/mL and an MIC (Acinetobacter lactucae, isolate NO-Ab86, Acinetobacter dijkshoorniae, read-out: MIC) of 1 µg/mL. The MIC (Acinetobacter lactucae, isolate NO-Ab88, Acinetobacter dijkshoorniae, read-out: MIC) was 2 µg/mL, the MIC (Acinetobacter lactucae, isolate NO-Ab91, Acinetobacter dijkshoorniae, read-out: MIC) was 2 µg/mL and the MIC (Acinetobacter lactucae, isolate NO-Ab121, Acinetobacter dijkshoorniae, read-out: MIC) was 4 µg/mL. The MIC (Acinetobacter lactucae, isolate NO-Ab125, Acinetobacter dijkshoorniae, read-out: MIC) was 2 µg/mL, the MIC (Acinetobacter lactucae, isolate NO-Ab160, Acinetobacter dijkshoorniae, read-out: MIC) was 0.5 µg/mL and the MIC (Acinetobacter nosocomialis, isolate NO-Ab43, Acinetobacter nosocomialis, read-out: MIC) was 2 µg/mL. The MIC (Acinetobacter nosocomialis, isolate NO-Ab68, Acinetobacter nosocomialis, OXA-24/40, read-out: MIC) was 4 µg/mL, the MIC (Acinetobacter nosocomialis, isolate NO-Ab98, Acinetobacter nosocomialis, read-out: MIC) was 2 µg/mL and the MIC (Acinetobacter nosocomialis, isolate NO-Ab208, Acinetobacter nosocomialis, read-out: MIC) was 2 µg/mL. The MIC (Acinetobacter pittii, isolate NO-Ab59, Acinetobacter pittii, read-out: MIC) was 2 µg/mL, the MIC (Acinetobacter pittii, isolate NO-Ab66, Acinetobacter pittii, read-out: MIC) was 8 µg/mL and the MIC (Acinetobacter pittii, isolate NO-Ab73, Acinetobacter pittii, read-out: MIC) was 2 µg/mL. For the same compound, the MIC (Acinetobacter pittii, isolate NO-Ab75, Acinetobacter pittii, read-out: MIC) was 4 µg/mL, the MIC (Acinetobacter pittii, isolate NO-Ab78, Acinetobacter pittii, read-out: MIC) was 1 µg/mL and the MIC (Acinetobacter pittii, isolate NO-Ab82, Acinetobacter pittii, read-out: MIC) was 1 µg/mL. For the same compound, the MIC (Acinetobacter pittii, isolate NO-Ab89, Acinetobacter pittii, read-out: MIC) was 1 µg/mL, the MIC (Acinetobacter pittii, isolate NO-Ab90, Acinetobacter pittii, read-out: MIC) was 1 µg/mL and the MIC (Acinetobacter pittii, isolate NO-Ab97, Acinetobacter pittii, read-out: MIC) was 4 µg/mL. For the same compound, the MIC (Acinetobacter pittii, isolate NO-Ab105, Acinetobacter pittii, read-out: MIC) was 1 µg/mL, the MIC (Acinetobacter pittii, isolate NO-Ab106, Acinetobacter pittii, read-out: MIC) was 1 µg/mL and the MIC (Acinetobacter pittii, isolate NO-Ab107, Acinetobacter pittii, read-out: MIC) was 0.5 µg/mL. It also gave an MIC (Acinetobacter pittii, isolate NO-Ab111, Acinetobacter pittii, read-out: MIC) of 1 µg/mL, an MIC (Acinetobacter pittii, isolate NO-Ab113, Acinetobacter pittii, read-out: MIC) of 2 µg/mL and an MIC (Acinetobacter pittii, isolate NO-Ab118, Acinetobacter pittii, read-out: MIC) of 2 µg/mL. It also gave an MIC (Acinetobacter pittii, isolate NO-Ab135, Acinetobacter pittii, read-out: MIC) of 1 µg/mL, an MIC (Acinetobacter pittii, isolate NO-Ab145, Acinetobacter pittii, read-out: MIC) of 2 µg/mL and an MIC (Acinetobacter pittii, isolate NO-Ab151, Acinetobacter pittii, read-out: MIC) of 2 µg/mL. The MIC (Acinetobacter pittii, isolate NO-Ab154, Acinetobacter pittii, read-out: MIC) was 1 µg/mL, the MIC (Acinetobacter pittii, isolate NO-Ab157, Acinetobacter pittii, read-out: MIC) was 4 µg/mL and the MIC (Acinetobacter pittii, isolate NO-Ab162, Acinetobacter pittii, read-out: MIC) was 8 µg/mL. The MIC (Acinetobacter pittii, isolate NO-Ab164, Acinetobacter pittii, read-out: MIC) was 1 µg/mL, the MIC (Acinetobacter pittii, isolate NO-Ab178, Acinetobacter pittii, read-out: MIC) was 4 µg/mL and the MIC (Acinetobacter pittii, isolate NO-Ab197, Acinetobacter pittii, read-out: MIC) was 2 µg/mL. For the same compound, the MIC (Acinetobacter proteolyticus, isolate NO-Ab99, Acinetobacter proteolyticus, read-out: MIC) was 4 µg/mL, the MIC (Acinetobacter proteolyticus, isolate NO-Ab102, Acinetobacter proteolyticus, read-out: MIC) was 4 µg/mL and the MIC (Acinetobacter proteolyticus, isolate NO-Ab210, Acinetobacter proteolyticus, read-out: MIC) was 1 µg/mL. For the same compound, the MIC (Acinetobacter radioresistens, isolate NO-Ab175, Acinetobacter radioresistens, read-out: MIC) was 0.25 µg/mL, the MIC (Acinetobacter radioresistens, isolate NO-Ab215, Acinetobacter radioresistens, read-out: MIC) was 0.12 µg/mL and the MIC (Acinetobacter ursingii, isolate NO-Ab3, Acinetobacter ursingii, read-out: MIC) was 0.25 µg/mL. The MIC (Acinetobacter ursingii, isolate NO-Ab64, Acinetobacter ursingii, read-out: MIC) was 1 µg/mL, the MIC (Acinetobacter ursingii, isolate NO-Ab87, Acinetobacter ursingii, read-out: MIC) was 0.25 µg/mL and the MIC (Acinetobacter ursingii, isolate NO-Ab103, Acinetobacter ursingii, read-out: MIC) was 2 µg/mL. The MIC (Acinetobacter ursingii, isolate NO-Ab119, Acinetobacter ursingii, read-out: MIC) was 8 µg/mL, the MIC (Acinetobacter ursingii, isolate NO-Ab120, Acinetobacter ursingii, read-out: MIC) was 4 µg/mL and the MIC (Acinetobacter ursingii, isolate NO-Ab123, Acinetobacter ursingii, read-out: MIC) was 2 µg/mL. For the same compound, the MIC (Acinetobacter ursingii, isolate NO-Ab126, Acinetobacter ursingii, read-out: MIC) was 4 µg/mL, the MIC (Acinetobacter ursingii, isolate NO-Ab147, Acinetobacter ursingii, read-out: MIC) was 2 µg/mL and the MIC (Acinetobacter ursingii, isolate NO-Ab155, Acinetobacter ursingii, read-out: MIC) was 4 µg/mL. For the same compound, the MIC (Acinetobacter ursingii, isolate NO-Ab165, Acinetobacter ursingii, read-out: MIC) was 2 µg/mL, the MIC (Acinetobacter ursingii, isolate NO-Ab166, Acinetobacter ursingii, read-out: MIC) was 1 µg/mL and the MIC (Acinetobacter ursingii, isolate NO-Ab214, Acinetobacter ursingii, read-out: MIC) was 4 µg/mL. The MIC (Acinetobacter ursingii, isolate NO-Ab221, Acinetobacter ursingii, read-out: MIC) was 4 µg/mL, the MIC (Acinetobacter ursingii, isolate NO-Ab222, Acinetobacter ursingii, read-out: MIC) was 1 µg/mL and the MIC (Acinetobacter, isolate NO-Ab146, Acinetobacter iwoffii, read-out: MIC) was 2 µg/mL. It also gave an MIC (Acinetobacter, isolate NO-Ab159, Acinetobacter iwoffii, read-out: MIC) of 0.5 µg/mL, an MIC50 [1] of 2 µg/mL and an MIC90 [1] of 4 µg/mL. The “MIC distribution 0.25” value [2] was 4.6, the “MIC distribution 0.5” value [2] was 12.6 and the “MIC distribution 1” value [2] was 41.4. For the same compound, the “MIC distribution 2” value [2] was 73.6, the “MIC distribution 4” value [2] was 96.6 and the “MIC distribution 8” value [2] was 98.9. The “MIC distribution 16” value [2] was 100, the “MIC distribution 32” value [2] was 100 and the “MIC distribution ≤0.06” value [2] was 0.
